Test results reported in patent US20260335282A1, “NOVEL 3-ARYLIDENE-2-INDOLINONE DERIVATIVES FOR THERAPEUTIC USE” (ISTANBUL UNIVERSITESI REKTORLUGU, priority 2022, published 2026).
“Also recorded” adds a separate entry of the source. Like-named read-outs stand apart in the source and are kept apart here.

Tests used:
HUVEC cells = test: MTT cytotoxicity, healthy cells HUVEC; format: cell-based, human; conditions: for IC50: MTT
Text: (§1) The cytotoxicity, general tyrosine kinase inhibitory effects and cell death (apoptosis/necrosis) assays of 1-benzyl-3-(1H-indol-3-ylmethylidene)-1,3-dihydro-2H-indol-2-one derivatives (Formula 5) of the present invention are studied by the following methods. […] HUVEC (human umbilical vein endothelial cell), MCF-10F (human breast epithelial cell) and Beas2b (human lung bronchial epithelial cell) cell lines have been used as healthy control cells in MTT experiments.
(§2) Beas2b (human lung bronchiole epithelial cell) and HEK293 (renal tubule epithelium) cells used as normal cell lines were cultured in RPMI medium, and HUVEC (human umbilical cord endothelial cells) and MCF-10F (human breast epithelial cell) cells are cultured in DMEM medium containing 100 µg/ml penicillin/streptomycin. The cells, which covered 70% of the culture flask, are washed with phosphate buffer and then removed from the surface of the flask by application of trypsin-ethylenediamine tetraacetic acid (Trypsin-EDTA; 0.25%) solution, passaged, counted and seeded on appropriate plates before each experiment. Cells are treated with a total of 45 2-indolinone compounds (5) at concentrations of 0.1, 1, 5 and 10 μM. Stock compounds are prepared in 1 ml dimethylsulfoxide (DMSO) and 4 different dilutions were prepared with medium and performed to the cells. Control group cells are treated with DMSO at a similar concentration to the experimental groups.
(§3) MTT (3-(4,5-dimethylthiazol-2-yl)-2,5-diphenyl-2H-tetrazolium bromide) colorimetric assay provides quantitation of viable cells with ongoing mitochondrial activity in culture medium. According to the standard procedure in cell culture conditions, cells are maintained in RPMI-1640 and DMEM culture media containing 10% FBS and 1% penicillin/streptomycin. The trypan blue test is used for cell counts.
(§4) The effects of 45 2-indolinone compounds (5) on cell viability in all cancer cell lines are investigated by MTT assay. Cells are seeded in a 96-well flat bottom plate with 5000 cells in each well and 2-indolinone compounds (5) at concentrations of 0.1, 1, 5 and 10 μM are performed to the cells the next day. After 48 and/or 72 hours following treatment with 2-indolinone compounds, 50 μl of the supernatant is slowly discarded (as it was acid medium) and MTT at a concentration of 5 mg/ml is added to each well in a volume of 10 μl. After incubation for 4 hours, the formazan crystals formed in the wells are dissolved by adding 100 μl DMSO and the optical density is read at 570 nm test wavelength and 630 nm reference wavelength. Cell viability is expressed as % cell viability by comparing the absorbance of control and test wells. IC50 value is calculated from the dose-response curves prepared for each compound. In addition, the possible DMSO effect is eliminated by preparing negative control wells compatible with the amount of DMSO contained in the compounds. To understand the reaction of the compounds with MTT, cell-free (MTT+compounds) negative controls are prepared at the concentrations used (Mosmann, 1983). […] The absorbance values obtained are compared to the control and statistically evaluated by unpaired t-test using “Graphpad Prism 5.04” software. “P<0.05” is accepted as significant. When evaluating cytotoxic effects, the present inventors aim for the inventive compounds to be effective in cancer cells and ineffective in healthy cells. The inventive compounds have also been compared with sunitinib, one of the reference chemotherapy drugs currently used in treatment.
(§5) Among the compounds of the present invention, those that killed cancer cells by at least 50% (p<0.05) are selected and tested whether a 10-fold concentration of the M concentration at the IC50 value is toxic to normal healthy cells.

MDA-MB-231 cells = test: MTT cytotoxicity, breast cancer cells MDA-MB-231; format: cell-based, human; conditions: MTT, no * mark (incubation time not given)
Text: as §1, §2, §3, §4, §5

HCT-116 cells = test: MTT cytotoxicity, colon cancer cells HCT-116; format: cell-based, human
Text: as §1, §2, §3, §4

MCF-10F/Beas2b cells = test: MTT cytotoxicity, healthy cells MCF-10F/Beas2b; format: cell-based, human; conditions: for IC50: MTT
Text: as §1, §2, §3, §4, §5

[1] = tested on: pancreas and kidney cancer cells; test: Apoptosis detection, Annexin V/PI flow cytometry, pancreas and kidney cancer cells; format: cell-based, human
Description: (§6) After incubation with 2-indolinone compounds (IC50 μM concentration; 48 and/or 72 hours), cells are washed twice with PBS and the cell pellet is suspended in Annexin V binding buffer. After this incubation, cells are incubated with FITC-conjugated Annexin V and propidium iodine staining solution for 15 minutes in the dark and at room temperature. Then, cells are analyzed by flow cytometry (Beckman coulter, Navios) (Wlodkowic, D., Skommer, J, Darzynkiewicz, Z. 2009. Flow cytometry-based apoptosis detection, Methods Mol Biol., 559, 1-14).
Whether the 2-indolinone derivatives (5) with the highest selectivity index and general TKI activity stimulated apoptosis and necrosis is determined by Annexin V and propidium iodine staining in pancreas and kidney cancer cells. Annexin V/PI flow cytometry apoptosis values of the tested compounds Y1, Y2, Y3, Y4, Y8 and Y14 are found to be 40% and above in correlation with MTT results. The apoptosis rates of the control groups and the substances are analyzed by t test in GraphPad version 9.0.

[2] = tested on: general tyrosine kinase activity in MIA PaCa-2 pancreas cancer cells; test: General tyrosine kinase activity (ELISA) in MIAPaCa-2 cells; format: cell-based, human; conditions: 72 hours, IC50 concentration
Description: Takara Universal Tyrosine Kinase Assay Kit is used to determine the effects of 11 2-indolinone compounds (Y1, Y2, Y3, Y4, Y5, Y8, […], […], Y21, Y23, 20C, 22C) on general tyrosine kinase activity in cancer cells. Cells are seeded in 6-well plates (4.10^5 cells/well) and the IC50 concentration of each selected molecule is performed to the cells for 48 or 72 hours. Cells in the control group are incubated with medium only. At the end of the incubation period, the cells in each well are washed with PBS and cells are removed from the wells using a cell scraper via 1 ml of the extraction buffer in the kit. The cell lysate is transferred to ependorf tubes and centrifuged at 10.000 g for 10 minutes at +4° C. and the supernatant is used as a sample for activity determination. After the extracts obtained from the control and experimental groups are diluted 1:25, 40 μl extracts is transferred to two wells in the 96-well plate in the kit. In addition, the standard solution in the kit is diluted according to the kit instructions and each concentration is transferred 40 μl into three wells. 10 μl of 40 mM ATP-2Na solution is added to all wells and the plate is incubated at 37° C. for 30 minutes. After incubation, all wells are washed 4 times with wash buffer. 100 μl of blocking solution is added to each well and incubated again at 37° C. for 30 minutes. After incubation, the liquid in the wells is discarded and 50 μl of anti-phosphotyrosine-HRP solution is added to each well and incubated at 37° C. for 30 minutes. The wells are washed again four times with wash buffer and 100 μl of HRP-substrate solution (TMBZ) is added to each well and incubated at 37° C. for 15 minutes. The reaction is finished by adding 100 μl of stop solution to each well and the optical density in each well is measured at 405 nm with a microplate reader (BioTek, USA). The tyrosine kinase activity in each sample is calculated from the standard curve obtained from the absorbance values of the standard solutions with the kit (Chan W Y, Lau P M, Yeung K W, Kong S K. The second generation tyrosine kinase inhibitor dasatinib induced eryptosis in human erythrocytes—An in vitro study. Toxicol Lett. 2018; 295:10-21). This activity is normalized compared to the control group by dividing by the amount of protein in each sample.
The effects of 11 2-indolinone compounds (Y1, Y2, Y3, Y4, Y5, Y8, Y14, Y21, Y23, 20C and 22C) having the structure of formula (5), which are prominent with their cytotoxicity in A498, MIAPaCa-2 and HCT-116 cancer cell lines and nontoxic properties in healthy cells, on general tyrosine kinase activity in cancer cells are determined.

MIAPaCa-2 cells [3] = test: Apoptosis/necrosis detection, Annexin V/PI flow cytometry, MiaPaca-2; format: cell-based, human
Description: as §6

A549 cells = test: MTT cytotoxicity, lung cancer cells A549; format: cell-based, human
Text: as §1, §2, §3, §4, §5

HT-29 cells = test: MTT cytotoxicity, colon cancer cells HT-29; format: cell-based, human; conditions: MTT
Text: as §1, §2, §3, §4

MCF-7 cells = test: MTT cytotoxicity, breast cancer cells MCF-7; format: cell-based, human; conditions: for IC50: MTT
Text: as §1, §2, §3, §4, §5

CAKI-1 cells = test: MTT cytotoxicity, kidney cancer cells CAKI-1; format: cell-based, human
Text: as §1, §2, §3, §4, §5

MIAPaCa-2 cells [4] = test: MTT cytotoxicity, pancreas cancer cells MIAPaCa-2; format: cell-based, human
Text: as §1, §2, §3, §4

A498 cells = test: MTT cytotoxicity, kidney cancer cells A498; format: cell-based, human; conditions: MTT
Text: as §1, §2, §3, §4, §5

human cancer cells = test: MTT cell viability, human cancer cells overall; format: cell-based; conditions: cell line as discussed at the place
Text: as §1, §2, §3
The effects of 45 2-indolinone compounds (5) on cell viability in all cancer cell lines are investigated by MTT assay. Cells are seeded in a 96-well flat bottom plate with 5000 cells in each well and 2-indolinone compounds (5) at concentrations of 0.1, 1, 5 and 10 μM are performed to the cells the next day. After 48 and/or 72 hours following treatment with 2-indolinone compounds, 50 μl of the supernatant is slowly discarded (as it was acid medium) and MTT at a concentration of 5 mg/ml is added to each well in a volume of 10 μl. After incubation for 4 hours, the formazan crystals formed in the wells are dissolved by adding 100 μl DMSO and the optical density is read at 570 nm test wavelength and 630 nm reference wavelength. Cell viability is expressed as % cell viability by comparing the absorbance of control and test wells. IC50 value is calculated from the dose-response curves prepared for each compound. In addition, the possible DMSO effect is eliminated by preparing negative control wells compatible with the amount of DMSO contained in the compounds. To understand the reaction of the compounds with MTT, cell-free (MTT+compounds) negative controls are prepared at the concentrations used (Mosmann, 1983). […] The absorbance values obtained are compared to the control and statistically evaluated by unpaired t-test using “Graphpad Prism 5.04” software. “P<0.05” is accepted as significant. When evaluating cytotoxic effects, the present inventors aim for the inventive compounds to be effective in cancer cells and ineffective in healthy cells. […]

[5] = no * mark (incubation time not specified)
[6] = read-out: IC50, MDA-MB-231 (breast)
[7] = MTT, no * mark (incubation time not specified)

In the case of `Cn1cc(/C=C2\C(=O)N(Cc3ccccc3)c3ccc(OC(F)(F)F)cc32)c2ccccc21` [Y14], the “Selectivite Index, HUVEC (Table 2)” value (HUVEC cells; HUVEC vs colon or pancreas cancer cells, cancer line not given) is reported as over 66.66, the IC50 (HUVEC cells; [5]) is reported as over 10 µM and the IC50 (MDA-MB-231 cells; [6]) is reported as over 10 µM. The IC50 (HCT-116 cells; [5]) was over 10 µM, the “Selectivite Index, MCF-10F/Beas2b (Table 2)” value (MCF-10F/Beas2b cells; MCF-10F/Beas2b vs colon or pancreas cancer cells, cancer line not given) was 45.06 and the IC50 (MCF-10F/Beas2b cells; [5]) was 6.76 µM. For the same compound, the “Annexin V/PI flow cytometry apoptosis values” [1] was at least 40%, the “general tyrosine kinase activity compared to control” value [2] was “significantly decreased; also recorded: decreased the general tyrosine kinase activity” and the “necrosis compared to control” value (MIAPaCa-2 cells [3]; MiaPaca-2) was “did not cause necrosis”. For the same compound, the “apoptosis (early and late) compared to control” value (MIAPaCa-2 cells [3]; MiaPaca-2, IC50 values) was “increase in apoptosis at IC50 values was statistically significant”, the IC50 (A549 cells; [5]) was over 10 µM and the IC50 (HT-29 cells; [5]) was over 10 µM. It also gave an IC50 (MCF-7 cells; [5]) of 6.09 µM, an IC50 (CAKI-1 cells; [5]) of over 10 µM and an IC50 (MIAPaCa-2 cells [4]; [7]) of 0.15 µM. The IC50 (A498 cells; [5]) was over 10 µM.

With `O=C1/C(=C\c2c[nH]c3ccccc23)c2cc(Cl)ccc2N1Cc1ccc(F)cc1` [17C] the IC50 (HUVEC cells; Homo sapiens, HUVEC, no * mark (incubation time not given)) was 1.24 µM, the IC50 (MDA-MB-231 cells; Homo sapiens, MDA-MB-231, read-out: IC50, MDA-MB-231 (breast)) was over 10 µM and the IC50 (HCT-116 cells; Homo sapiens, HCT-116, no * mark (incubation time not given)) was 0.93 µM. For the same compound, the IC50 (MCF-10F/Beas2b cells; Homo sapiens, *: effective 72 hours after incubation) was 2.66 µM, the IC50 (MCF-10F/Beas2b cells; Homo sapiens, no * mark (incubation time not given)) was 2.66 µM and the “cytotoxicity in healthy cells” value (MCF-10F/Beas2b cells; healthy cells) was “high in healthy cells”. It also gave an IC50 (A549 cells; Homo sapiens, A549, no * mark (incubation time not given)) of 1.11 µM, an IC50 (HT-29 cells; Homo sapiens, HT-29, no * mark (incubation time not given)) of 2.07 µM and an IC50 (MCF-7 cells; Homo sapiens, MCF7, *: effective 72 hours after incubation) of 4.76 µM. The “potency/selectivity compared with sunitinib malate” value (human cancer cells) was “more potent than sunitinib malate”, the IC50 (CAKI-1 cells; Homo sapiens, CAKI-1, *: effective 72 hours after incubation) was 4.62 µM and the IC50 (MIAPaCa-2 cells [4]; Homo sapiens, MIA PaCa-2, MTT, no * mark (incubation time not given)) was 1.32 µM. The IC50 (A498 cells; Homo sapiens, A498, 72 h, *: effective 72 hours after incubation) was 0.77 µM.

With `O=C1/C(=C\c2c[nH]c3ccccc23)c2cccc(Cl)c2N1Cc1ccccc1` [22C] the “Selectivite Index (SI), HUVEC (Table 1)” value (HUVEC cells; HUVEC vs breast or kidney cancer cells, cancer line not given) was over 17.54, the IC50 (HUVEC cells; [5]) was over 10 µM and the IC50 (MDA-MB-231 cells; [6]) was 8.4 µM. The IC50 (HCT-116 cells; [5]) was over 10 µM, the “Selectivite Index (SI), MCF-10F/Beas2b (Table 1)” value (MCF-10F/Beas2b cells; MCF-10F/Beas2b vs breast or kidney cancer cells, cancer line not given) was over 17.54 and the IC50 (A549 cells; [5]) was over 10 µM. The IC50 (HT-29 cells; [5]) was over 10 µM, the “selectivity index (SI)” value (MCF-7 cells; MCF-10F vs MCF-7) was over 17 and the IC50 (MCF-7 cells; [5]) was 0.57 µM. For the same compound, the “potency/selectivity compared with sunitinib malate” value (human cancer cells) was “much more potent and have higher SI values than the reference compound sunitinib malate”, the IC50 (CAKI-1 cells; [5]) was 2.49 µM and the IC50 (MIAPaCa-2 cells [4]; [7]) was over 10 µM. The IC50 (A498 cells; [5]) was over 10 µM.
